Here are results for 20 compounds from article PMC6556873, “Rapid Covalent-Probe Discovery by Electrophile-Fragment Screening” (Journal of the American Chemical Society, 2019).

Molecules are shown by their SMILES. Like-named read-outs stand apart in the source and are kept apart here.

The target in series [1] is T1, BSA (Bos taurus, UniProt P02769).
T1 construct: gene ALB
Also on record: Intact protein LC/MS covalent labelling, fragments in pools of five, 200 uM each, 4 °C. The note with it: 24 h, 4 °C, pool of five; 200 µM; covalent.

In series [2] the target is T2, NNMT (hNNMT) (Homo sapiens, UniProt P40261).
T2 construct: wild type, N-terminal His6 tag kept (no cleavage described), E. coli, construct 31248 Da
T2 sequence (P40261 1-264): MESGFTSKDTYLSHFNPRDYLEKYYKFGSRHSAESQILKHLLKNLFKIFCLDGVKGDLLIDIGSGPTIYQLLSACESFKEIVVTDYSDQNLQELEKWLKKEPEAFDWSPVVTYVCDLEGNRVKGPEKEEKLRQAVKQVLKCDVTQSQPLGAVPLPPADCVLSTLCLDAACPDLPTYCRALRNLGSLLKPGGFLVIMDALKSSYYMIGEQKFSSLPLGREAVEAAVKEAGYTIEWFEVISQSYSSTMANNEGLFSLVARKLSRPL
Also on record: Intact protein LC/MS covalent labelling, fragments in pools of five, 200 uM each, 4 °C. The following applies: 24 h, 4 °C, pool of five; 200 µM; covalent.

For series [3], the target named is T3, NUDT7 (Homo sapiens, UniProt P0C024).
T3 construct: residues 14-235, E. coli, pNIC28-Bsa4, N-terminal His6 tag removed by TEV, construct 26672 Da
T3 sequence (P0C024 14-235): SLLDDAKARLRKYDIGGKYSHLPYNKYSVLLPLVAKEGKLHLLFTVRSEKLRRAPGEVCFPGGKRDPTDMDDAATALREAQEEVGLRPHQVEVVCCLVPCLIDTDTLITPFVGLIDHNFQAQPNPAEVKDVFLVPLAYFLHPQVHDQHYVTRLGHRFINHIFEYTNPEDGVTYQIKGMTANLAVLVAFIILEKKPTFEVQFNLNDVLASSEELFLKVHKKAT
Also on record: Intact protein LC/MS covalent labelling, fragments in pools of five, 200 uM each, 4 °C. The note with it: 24 h, 4 °C, pool of five; 200 µM; covalent.

The target of series [4] is T4, OTUB2 (OTUB2A) (Homo sapiens, UniProt Q96DC9).
T4 construct: full length residues 1-234, E. coli BL21(DE3)-R3, His tag removed by TEV, construct 27312 Da
T4 sequence (Q96DC9 1-234): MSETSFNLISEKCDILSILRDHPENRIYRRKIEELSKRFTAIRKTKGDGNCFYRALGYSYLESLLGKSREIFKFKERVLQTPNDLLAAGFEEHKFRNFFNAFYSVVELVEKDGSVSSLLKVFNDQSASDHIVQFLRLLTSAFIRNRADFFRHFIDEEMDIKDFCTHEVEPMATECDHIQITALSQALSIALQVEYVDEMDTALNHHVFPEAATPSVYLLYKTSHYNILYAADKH
Set-up: Intact protein LC/MS covalent labelling, fragments in pools of five, 200 uM each, 4 °C. The following applies: 24 h, 4 °C, pool of five; 200 µM; covalent.

Series [5] concerns the target T5, PCAF (Homo sapiens, UniProt Q92831).
T5 construct: gene KAT2B
Set-up: Intact protein LC/MS covalent labelling, fragments in pools of five, 200 uM each, 4 °C. The following applies: 24 h, 4 °C, pool of five; 200 µM; covalent.

A short description of series [6]: in vitro. Also on record: species or system CCD841, HEK293. The following applies: human, hb2 cells, read-out: HB-2 Cells Viability (%).
A short description of series [7]: in vitro. The following applies: human, ccd841 cells. Set-up: species or system HB2, HEK293.
Series [8] in a line: in vitro. Also on record: species or system HB2, CCD841. The note with it: human, hek293 cells.

T5 sequence (Q92831 whole entry): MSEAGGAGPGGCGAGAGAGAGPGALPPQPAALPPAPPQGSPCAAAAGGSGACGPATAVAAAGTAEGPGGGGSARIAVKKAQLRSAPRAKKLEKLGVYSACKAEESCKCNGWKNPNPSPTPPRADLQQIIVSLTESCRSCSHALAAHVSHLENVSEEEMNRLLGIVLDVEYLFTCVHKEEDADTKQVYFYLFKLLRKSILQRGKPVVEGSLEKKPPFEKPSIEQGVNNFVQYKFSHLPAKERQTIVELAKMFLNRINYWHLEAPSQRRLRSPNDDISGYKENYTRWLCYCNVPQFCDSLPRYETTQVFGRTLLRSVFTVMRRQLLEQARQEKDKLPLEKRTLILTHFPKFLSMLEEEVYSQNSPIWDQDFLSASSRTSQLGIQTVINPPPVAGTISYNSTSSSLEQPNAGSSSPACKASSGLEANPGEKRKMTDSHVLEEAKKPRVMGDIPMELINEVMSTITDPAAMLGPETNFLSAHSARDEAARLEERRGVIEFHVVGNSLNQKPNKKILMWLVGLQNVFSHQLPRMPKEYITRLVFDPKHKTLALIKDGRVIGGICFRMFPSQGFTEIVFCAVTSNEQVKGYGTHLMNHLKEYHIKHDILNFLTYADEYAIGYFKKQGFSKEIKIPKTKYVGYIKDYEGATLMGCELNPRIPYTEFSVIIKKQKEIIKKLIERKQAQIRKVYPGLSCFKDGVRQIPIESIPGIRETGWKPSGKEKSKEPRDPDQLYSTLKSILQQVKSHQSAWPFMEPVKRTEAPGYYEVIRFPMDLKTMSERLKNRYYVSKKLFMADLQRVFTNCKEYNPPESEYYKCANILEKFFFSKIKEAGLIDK
T1 sequence (P02769 whole entry): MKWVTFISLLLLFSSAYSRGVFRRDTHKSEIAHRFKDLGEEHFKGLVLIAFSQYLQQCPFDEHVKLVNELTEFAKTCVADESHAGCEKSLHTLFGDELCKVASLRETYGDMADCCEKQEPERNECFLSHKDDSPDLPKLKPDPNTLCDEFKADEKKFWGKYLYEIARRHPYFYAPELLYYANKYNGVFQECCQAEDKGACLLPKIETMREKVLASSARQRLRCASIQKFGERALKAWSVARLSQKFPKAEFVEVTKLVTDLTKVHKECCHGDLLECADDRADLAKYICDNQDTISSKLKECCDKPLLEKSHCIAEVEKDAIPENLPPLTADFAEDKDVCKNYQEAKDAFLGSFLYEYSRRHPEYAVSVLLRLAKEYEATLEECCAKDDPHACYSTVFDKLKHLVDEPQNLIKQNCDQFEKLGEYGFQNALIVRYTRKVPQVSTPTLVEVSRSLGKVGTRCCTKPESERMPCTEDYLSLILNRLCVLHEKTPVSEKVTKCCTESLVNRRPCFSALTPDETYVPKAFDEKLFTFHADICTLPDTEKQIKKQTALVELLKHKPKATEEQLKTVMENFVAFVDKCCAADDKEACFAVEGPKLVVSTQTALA

What is called viability is a read-out of living cells in per cent, often relative to untreated cells. In turn, `O=C(CCl)Nc1c(F)cc(F)cc1Br` [PCM-0102189] had a BSA in series [1] of 0. This compound displayed an NNMT in series [2] of 0.11. This compound also came in with an NUDT7 in series [3] of 0.1. Further, the OTUB2 in series [4] is 0. In series [5], this compound came in with a PCAF of 0. The viability at 48 h, 10 µM in series [6] turned out to be 79.5%; in series [7] it was 59.6%; in series [8] it was 72.4%.

With `O=C(CCl)Nc1cccc(Cl)c1` [PCM-0102198], the BSA in series [1] was 0. This compound also yielded an NNMT in series [2] of 0. The compound also showed an NUDT7 in series [3] of 0.28. Besides, the OTUB2 in series [4] was found to be 0.37. In series [5], this compound yielded a PCAF of 0. For the same compound, the figures for the viability at 48 h, 10 µM in series [6], in series [7] and in series [8] were 9%, 41.1% and 1.8%, respectively.

For the compound `Cc1cc(Cl)ccc1NC(=O)CCl` [PCM-0102214], the BSA in series [1] came out at 0. This compound returned an NNMT in series [2] of 0.3. The same compound came in with an NUDT7 in series [3] of 0.08. The compound further yielded an OTUB2 in series [4] of 0.39. In series [5], this compound registered a PCAF of 0. The values for the viability at 48 h, 10 µM in series [6], in series [7] and in series [8] were 44.6%, 67.9% and 5.5%, respectively.

`CC(NC(=O)CCl)c1ccc(F)cc1` (stereo not shown) [PCM-0102228] yielded a BSA in series [1] of 0. The NNMT in series [2] was found to be 0. The NUDT7 in series [3] is reported as 0.07. Besides, the OTUB2 in series [4] came to 0.2. The compound also had a PCAF in series [5] of 0. The viability at 48 h, 10 µM in series [6] came out at 84.6%; in series [7], 83.2%; in series [8], 63.8%.

`O=C(CCl)N1CCN(S(=O)(=O)c2cccs2)CC1` [PCM-0102241]: the BSA in series [1] came to 0. In addition, the NNMT in series [2] amounted to 0. For the same compound, the NUDT7 in series [3] is recorded as 0.12. Also, the OTUB2 in series [4] came to 0. This compound showed a PCAF in series [5] of 0. The viability at 48 h, 10 µM in series [6] is 8.9%; in series [7] it was 49.1%; in series [8], 8.9%.

In series [1], `O=C(CCl)N1CCN(C(=O)c2ccco2)CC1` [PCM-0102248] returned a BSA of 0.06. Also, the NNMT in series [2] was 0.1. The same compound came in with an NUDT7 in series [3] of 0.09. The compound also came in with an OTUB2 in series [4] of 0. The compound also registered a PCAF in series [5] of 0. The viability at 48 h, 10 µM was 78.1% in series [6], 73.2% in series [7] and 35.6% in series [8].

`O=C(CCl)NC1CCCC1` [PCM-0102250] had a BSA in series [1] of 0. The NNMT in series [2] turned out to be 0. Further, the NUDT7 in series [3] is recorded as 0. The same compound yielded an OTUB2 in series [4] of 0. The compound also yielded a PCAF in series [5] of 0. The viability at 48 h, 10 µM in series [6] came to 71.9%; in series [7], 69.1%; in series [8] it was 58.7%.

In series [1], `N#Cc1oc2ccccc2c1NC(=O)CCl` [PCM-0102252] gave a BSA of 0. Also, in series [2], the NNMT is recorded as 0.34. The NUDT7 in series [3] came to 0.37. Besides, the OTUB2 in series [4] amounted to 0.86. Also, the PCAF in series [5] was found to be 0. Further, the values for the viability at 48 h, 10 µM in series [6], in series [7] and in series [8] were 3.8%, 34.7% and 3.4%, respectively.

In series [1], `CCOC(=O)N1CCC(NC(=O)CCl)CC1` [PCM-0102255] yielded a BSA of 0. In series [2], this compound had an NNMT of 0.23. Besides, in series [3], the NUDT7 worked out at 0. The compound further returned an OTUB2 in series [4] of 0.24. The PCAF in series [5] was 0. Besides, the viability at 48 h, 10 µM in series [6] was found to be 61.8%; in series [7] it was 61.3%; in series [8], 74.2%.

As to `CNC(=O)c1ccc(NC(=O)CCl)cc1` [PCM-0102267], the BSA in series [1] was found to be 0. This compound also returned an NNMT in series [2] of 0. The same compound gave an NUDT7 in series [3] of 0. Further, in series [4], the OTUB2 is reported as 0. Also, the PCAF in series [5] is given as 0. Moreover, the viability at 48 h, 10 µM came to 20% in series [6], 32.5% in series [7] and 2.2% in series [8].

In turn, `Cl.O=C(CCl)N1CCN(Cc2cccc(Cl)c2)CC1` [PCM-0102269] registered a BSA in series [1] of 0. This compound also showed an NNMT in series [2] of 0. Moreover, in series [3], the NUDT7 is recorded as 0. In series [4], this compound had an OTUB2 of 0.19. In series [5], this compound had a PCAF of 0. Also, the results for the viability at 48 h, 10 µM in series [6], in series [7] and in series [8] were 6.3%, 24.2% and 7.9%, respectively.

In series [1], `C=CC(=O)Nc1ccc(C(=O)O)cc1` [PCM-0102271] registered a BSA of 0. Further, the NNMT in series [2] is 0. The same compound came in with an NUDT7 in series [3] of 0. The OTUB2 in series [4] stood at 0. In series [5], this compound registered a PCAF of 0. Moreover, the viability at 48 h, 10 µM was 111% in series [6], 94.2% in series [7] and 95.1% in series [8].

Consider `CC(C)N(C(=O)CCl)c1ccccc1` [PCM-0102272], for which the BSA in series [1] stood at 0. In series [2], this compound gave an NNMT of 0. In series [3], the NUDT7 came to 0.22. Also, the OTUB2 in series [4] stood at 0. The same compound came in with a PCAF in series [5] of 0. Moreover, the figures for the viability at 48 h, 10 µM in series [6], in series [7] and in series [8] were 58.6%, 17.7% and 16%, respectively.

For `O=C(CCl)Nc1cccnc1Cl` [PCM-0102274], the BSA in series [1] is reported as 0. The NNMT in series [2] is 0. The same compound displayed an NUDT7 in series [3] of 0. The compound further registered an OTUB2 in series [4] of 0. For the same compound, the PCAF in series [5] was 0. The results for the viability at 48 h, 10 µM in series [6], in series [7] and in series [8] were 84.4%, 88.8% and 81.4%, respectively.

The compound `Cl.O=C(CCl)N1CCN(Cc2ccc(Cl)s2)CC1` [PCM-0102277] showed a BSA in series [1] of 0.11. In series [2], this compound yielded an NNMT of 0.26. The NUDT7 in series [3] is on record as 0. This compound also gave an OTUB2 in series [4] of 0.09. Further, in series [5], the PCAF was 0. The viability at 48 h, 10 µM is 8.6% in series [6], 37.3% in series [7] and 18.2% in series [8].

In series [1], `O=C(CCl)N1CCN(S(=O)(=O)c2ccccc2F)CC1` [PCM-0102281] registered a BSA of 0. The compound further came in with an NNMT in series [2] of 0. Further, the NUDT7 in series [3] is on record as 0.14. Moreover, the OTUB2 in series [4] came to 0. Besides, the PCAF in series [5] was found to be 0. The viability at 48 h, 10 µM in series [6] was found to be 7.1%; in series [7], 62.6%; in series [8], 9.5%.

As to `CC(=O)c1ccccc1NC(=O)CCl` [PCM-0102282], in series [1], the BSA is recorded as 0. In addition, the NNMT in series [2] was 0.19. In series [3], this compound displayed an NUDT7 of 0. Besides, the OTUB2 in series [4] was found to be 0. For the same compound, the PCAF in series [5] is given as 0. In addition, the viability at 48 h, 10 µM in series [6] was 102%; in series [7], 90.3%; in series [8], 87.2%.

Take `O=C(CCl)Nc1cccc(C(F)(F)F)c1` [PCM-0102290]: in series [1], the BSA amounted to 0. In series [2], this compound registered an NNMT of 0.77. Besides, the NUDT7 in series [3] was 0.12. Further, the OTUB2 in series [4] is given as 0.26. Further, the PCAF in series [5] is on record as 0. Further, the viability at 48 h, 10 µM was found to be 9.5% in series [6], 40% in series [7] and 2.3% in series [8].

In turn, `O=C(CCl)N1CCN(c2ccccc2Cl)CC1` [PCM-0102297] yielded a BSA in series [1] of 0. In addition, the NNMT in series [2] came to 0.15. In series [3], this compound had an NUDT7 of 0.35. This compound showed an OTUB2 in series [4] of 0. The PCAF in series [5] was determined as 0. The results for the viability at 48 h, 10 µM in series [6], in series [7] and in series [8] were 2.3%, 52% and 3.9%, respectively.

In series [1], `CC(C)(C)NC(=O)CN1CCN(C(=O)CCl)CC1.Cl` [PCM-0102302] gave a BSA of 0. The NNMT in series [2] turned out to be 0.24. In addition, in series [3], the NUDT7 was found to be 0.08. This compound also had an OTUB2 in series [4] of 0.13. The compound also had a PCAF in series [5] of 0. Moreover, the viability at 48 h, 10 µM in series [6] was 97%; in series [7], 98.9%; in series [8], 84.4%.
